The source of these data is patent US7312248B2, “Control of parasites in animals by the use of novel trifluoromethanesulfonanilide oxime ether derivatives” (Schering-Plough Animal Health Corporation, priority 2004, dated 2007).

What all share (assay type): in vivo
Series [1] relates to Haemonchus contortus. Briefly: Haemonchus contortus larvacidal (larval development) assay. The conditions noted are these: 144 h, read-out: Haemonchus contortus LD99. Put shortly: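 Nematode eggs placed on agar containing compound (12 two-fold dilutions, final 0.024–50 μg/ml) and left 6 days to develop to L3. LD99 is the lowest concentration inhibiting development of 99% of larvae, derived from well titre (2^n−1) and top concentration.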

Series [2] relates to cat flea (Ctenocephalides felis). The experiment in a line: whole plant or invertebrate. Particulars: Ctenocephalides felis. In outline: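 Adult C. felis (3-7 days post-emergence; 15 per flask, at least 4 replicates) exposed to a glass flask base dried 24 h after coating with compound in acetone at 1.26 μg/cm^2. Held at 25±1 °C, 75±5% humidity; mortality (immobile or unable to right) scored at 8, 24 and/or 48 h as percentage.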

The test system is the same in series [3]. Briefly: Ctenocephalides felis adulticide assay: dose response (LC50). From the text: c) Ctenocephalides felis Adulticide Assay: C. felis Dose Response
The purpose of this example was to determine the LC50 when cat fleas were contacted with a glass surface treated with sample compounds or formulations prepared as described above. Mortality of fleas was defined as follows: fleas were considered dead if they didn't move or were on their sides and unable to walk or right themselves. LC50: Lethal Concentration 50—concentration of glass surface treatment at which 50% of the cat fleas were killed. The test species was the cat flea (Ctenocephalides felis). The strain used was obtained from external suppliers as pupae and held in the laboratory under testing conditions until the adults had emerged. Fifteen (15) fleas were used in a minimum of four replicates for each dose level (total of 60 fleas per dose level). The insects were selected to be in the adult life stage, aged between 3 and 7 days post emergence.
The compounds to be tested were dissolved in acetone just prior to testing. Samples of compounds were stored in a refrigerator (5±1° C.) unless otherwise specified. During the mortality testing, the temperature was maintained at 25+1° C. Humidity was maintained at 75±5%. The base (area=159 mm^2) of a 100 mL glass Erlenmeyer (conical) flask provided the treatment surface. Flasks were pretreated with Coatasil™ glass treatment to maximise bio-availability of test compounds by preventing them from binding to the glass surface.
Six dose levels (concentrations) of test sample, in the form of a serial dilution, were derived from a pilot study and covered a range that produced very low to very high mortality. The base of the 100 mL Erlenmeyer flask was treated with 0.5 mL of test sample in acetone and gently swirled. This volume was sufficient to cover the base of the flask. Flasks were left to dry for 24 hours before flea exposure. Adult cat fleas were lightly anaesthetised by cooling and then placed into a sorting chamber, which allowed fleas to revive and jump into the Erlenmeyer flasks. Fifteen (15)adult cat fleas were collected in each flask. The top of the flasks were then covered in Parafilm™ and small holes made to allow gas exchange. A 0.5 mL volume of acetone was applied to the base of an Erlenmeyer flask and the testing proceeded in the same manner described above. Cat fleas in the treatment containers were held under testing conditions for 24 hours. Mortality resulting from the treatments was recorded at 8 and 24 hours.

In series [4] the test system is Brown Dog Tick (Rhipicephalus sanguineus). The experiment in a line: Rapid screening protocol for topical application on brown dog ticks. Particulars: 48 h; Laboratory 2 F data. The procedure:
d) Rapid Screening Protocol for Topical Application on Brown Dog Ticks (Rhipicephalus sanguineus)
The aim of the test was to determine the presence of significant acaricidal activity in sample compounds or formulations when applied topically on brown dog ticks. A tick was defined as dead if it gave no apparent response when touched lightly and observed for 1 minute. […] Both permethrin and fipronil were employed as reference compounds. The insect species tested was the Brown Dog Tick (Rhipicephalus sanguineus). Mixed sex adult ticks were used for tests. The strain used was cultured by von Berky Veterinary Services, Woody Point, QLD, AU and supplied as unfed adult ticks (mixed sex). Ticks were maintained in controlled conditions (temp. 18°+2° C., humidity 75±5% RH).
Temperature was maintained at 25±1° C. and the humidity was ambient. […] Ticks were each treated on the abdomen with 1 μL of a single dose level of test sample in acetone; ten ticks were treated with solvent only (acetone) in each test. Tests were replicated 4 times (total of 40 ticks treated). […]

Setting [5] is: 8 h, read-out: C. felis Mortality (%) 8 h, 8 h, Laboratory 1 A data.
[6] abbreviates: 24 h, read-out: C. felis Mortality (%) 24 h, 24 h, Laboratory 1 A data.
Setting [7] is: 8 h, read-out: C. felis Mortality (%) 8 h, 8 h, Laboratory 2 B data.
The mark [8] stands for this setting: 24 h, read-out: C. felis Mortality (%) 24 h, 24 h, Laboratory 2 B data.

Structures are written as SMILES. Where two headings read alike, the source gives them in different places.

The term mortality denotes the share of the test organisms that died. With `CC/C(=N\OCc1ccccc1Cl)c1cc(Cl)ccc1NS(=O)(=O)C(F)(F)F` [Compound 10], the IC99 in series [1] is 2.7 µg/mL. The figures for the mortality at 1.26 µg/cm2, 1.26 µg/cm2 in series [2] (setting [5]) and in series [2] (setting [6]) were 56% and 73%, respectively. Moreover, the “C. felis LC50” value in series [3] (Laboratory 1 C data) is given as 0.3 μg/cm^2.
Consider `O=S(=O)(Nc1ccc(Cl)cc1/C(=N/OCc1ccc(C(F)(F)F)cc1)c1ccccc1)C(F)(F)F` [Compound 24], for which, in series [1], the IC99 was 2.5 µg/mL. For the same compound, the mortality at 1.26 µg/cm2, 1.26 µg/cm2 in series [2] (setting [6]) was determined as 43%. Besides, the “C. felis LC50” value in series [3] (Laboratory 2 D data) was 0.8^D μg/cm^2.
On to `CC/C(=N\OCc1cccc(Cl)c1Cl)c1cc(Cl)ccc1NS(=O)(=O)C(F)(F)F` [Compound 72], for which the IC99 in series [1] was 0.3 µg/mL. In addition, the values for the mortality at 1.26 µg/cm2, 1.26 µg/cm2 in series [2] (setting [5]) and in series [2] (setting [6]) were 13% and 63%, respectively. In addition, in series [3] (Laboratory 1 C data), the “C. felis LC50” value is 0.5 μg/cm^2.
As to `CC/C(=N\OCc1ccc(Cl)cc1Cl)c1cc(Cl)ccc1NS(=O)(=O)C(F)(F)F` [Compound 74], in series [1], the IC99 worked out at 0.4 µg/mL. In addition, in series [2] (setting [5]), the mortality at 1.26 µg/cm2, 1.26 µg/cm2 stood at 94%. For the same compound, the “C. felis LC50” value in series [3] (Laboratory 1 C data) is 0.2 μg/cm^2.
As for `CC/C(=N\OCc1ccc(Cl)c(Cl)c1)c1cc(Cl)ccc1NS(=O)(=O)C(F)(F)F` [Compound 79], the IC99 in series [1] stood at 0.6 µg/mL. For the same compound, the mortality at 1.26 µg/cm2, 1.26 µg/cm2 in series [2] (setting [5]) was 73%; in series [2] (setting [6]), 100%. In series [3] (Laboratory 1 C data), the “C. felis LC50” value was 0.6 μg/cm^2.
In the case of `CCC/C(=N\OCc1ccc(Cl)cc1Cl)c1cc(Cl)ccc1NS(=O)(=O)C(F)(F)F` [Compound 100, N-{4-chloro-2-[1-(2,4-dichlorobenzyloxyimino)butyl]}trifluoromethanesulfonamide], the IC99 in series [1] is 1.8 µg/mL. Also, the mortality at 1.26 µg/cm2, 1.26 µg/cm2 in series [2] (setting [5]) was 58%; in series [2] (setting [6]), 88%. The “C. felis LC50” value in series [3] (Laboratory 1 C data) was 0.4 μg/cm^2.
As to `CC/C(=N\OCCOc1ccccc1)c1cc(Cl)ccc1NS(=O)(=O)C(F)(F)F` [Compound 106], the IC99 in series [1] was 11 µg/mL. The mortality at 1.26 µg/cm2, 1.26 µg/cm2 in series [2] (setting [6]) was determined as 48%. In series [3] (Laboratory 1 C data), the “C. felis LC50” value came to 1.0 μg/cm^2.
For `C/C(=N\OC(C)c1ccc(Cl)cc1)c1cc(Cl)ccc1NS(=O)(=O)C(F)(F)F` (stereo not drawn) [Compound 123], the IC99 in series [1] is 0.9 µg/mL. The mortality at 1.26 µg/cm2, 1.26 µg/cm2 in series [2] (setting [5]) amounted to 11%. The “C. felis LC50” value is given as 1.2 μg/cm^2 in series [3] (Laboratory 1 C data) and 0.3 μg/cm^2 in series [3] (Laboratory 2 D data).
Regarding `C/C(=N\Oc1ccc(Cl)cc1)c1cc(Cl)ccc1NS(=O)(=O)C(F)(F)F` [Compound 127], in series [1], the IC99 is 0.4 µg/mL. Also, the mortality at 1.26 µg/cm2, 1.26 µg/cm2 in series [2] (setting [6]) worked out at 90%. Further, in series [3] (Laboratory 1 C data), the “C. felis LC50” value was 0.3 μg/cm^2.
Take `CC/C(=N\Oc1cccc(Cl)c1)c1cc(Cl)ccc1NS(=O)(=O)C(F)(F)F` [Compound 131]: the IC99 in series [1] came out at 1.6 µg/mL. Further, the mortality at 1.26 µg/cm2, 1.26 µg/cm2 in series [2] (setting [6]) is 100%. Also, the “C. felis LC50” value in series [3] (Laboratory 1 C data) worked out at 0.7 μg/cm^2.
For `C/C(=N\Oc1cccc(C(F)(F)F)c1)c1cc(Cl)ccc1NS(=O)(=O)C(F)(F)F` [Compound 134, N-{4-chloro-2-[1-(3-trifluoromethylphenoxyimino)ethyl]phenyl}trifluoromethanesulfonamide], the IC99 in series [1] was found to be 0.4 µg/mL. In series [2] (setting [6]), the mortality at 1.26 µg/cm2, 1.26 µg/cm2 was 96%. Moreover, the “C. felis LC50” value in series [3] (Laboratory 1 C data) turned out to be 0.4 μg/cm^2.
Turning to `CC/C(=N\Oc1ccc(Cl)c(Cl)c1)c1cc(Cl)ccc1NS(=O)(=O)C(F)(F)F` [Compound 139], the IC99 in series [1] was 0.9 µg/mL. Besides, in series [2] (setting [6]), the mortality at 1.26 µg/cm2, 1.26 µg/cm2 was determined as 64%. In series [3] (Laboratory 2 D data), the “C. felis LC50” value is 0.3^D μg/cm^2.
Regarding `C/C(=N\OC1CCCC1)c1cc(Cl)ccc1NS(=O)(=O)C(F)(F)F` [Compound 163, N-[4-chloro-2-(1-cyclopentyloxyiminoethyl)phenyl]trifluoromethanesulfonamide], the mortality at 1.26 µg/cm2, 1.26 µg/cm2 in series [2] (setting [6]) was determined as 100%. Moreover, in series [3] (Laboratory 1 C data), the “C. felis LC50” value worked out at 0.1 μg/cm^2.
The matching figures for `CC/C(=N\OC1C=CCCC1)c1cc(Cl)ccc1NS(=O)(=O)C(F)(F)F` (stereo not drawn) [Compound 170]: 97% and 0.2 μg/cm^2.
Take `CC/C(=N\OC(CC)CC)c1cc(Cl)ccc1NS(=O)(=O)C(F)(F)F` [Compound 171]: the mortality at 1.26 µg/cm2, 1.26 µg/cm2 in series [2] (setting [6]) is 100%. The “C. felis LC50” value in series [3] (Laboratory 1 C data) is recorded as 0.4 μg/cm^2.
In the case of `C/C(=N\OCC(C)C)c1cc(Cl)ccc1NS(=O)(=O)C(F)(F)F` [Compound 172], in series [2] (setting [6]), the mortality at 1.26 µg/cm2, 1.26 µg/cm2 is 100%. Besides, in series [3] (Laboratory 1 C data), the “C. felis LC50” value is 0.06 μg/cm^2.
Take `C=CCO/N=C(\C)c1cc(Cl)ccc1NS(=O)(=O)C(F)(F)F` [Compound 181]: the mortality at 1.26 µg/cm2, 1.26 µg/cm2 in series [2] (setting [6]) is 100%. Moreover, the “C. felis LC50” value in series [3] (Laboratory 1 C data) is 0.1 μg/cm^2.
As to `CC/C(=N\OCCOC)c1cc(Cl)ccc1NS(=O)(=O)C(F)(F)F` [Compound 183], the mortality at 1.26 µg/cm2, 1.26 µg/cm2 in series [2] (setting [7]) and in series [2] (setting [8]) was 100% throughout. Also, the “R. sanguineus Mortality (%) 48 h” value in series [4] was 100%.
Regarding `CC/C(=N\OCC(F)(F)F)c1cc(Cl)ccc1NS(=O)(=O)C(F)(F)F` [Compound 184], the mortality at 1.26 µg/cm2, 1.26 µg/cm2 in series [2] (setting [7]) and in series [2] (setting [8]) was 100% throughout. Moreover, in series [4], the “R. sanguineus Mortality (%) 48 h” value stood at 92%.
`C/C(=N\OCc1cccnc1)c1cc(Cl)ccc1NS(=O)(=O)C(F)(F)F` [Compound 188]: the mortality at 1.26 µg/cm2, 1.26 µg/cm2 in series [2] (setting [7]) and in series [2] (setting [8]) was 98% in each case. Further, in series [4], the “R. sanguineus Mortality (%) 48 h” value was 40%.
As to `C/C(=N\OCc1cccs1)c1cc(Cl)ccc1NS(=O)(=O)C(F)(F)F` [Compound 190], the mortality at 1.26 µg/cm2, 1.26 µg/cm2 amounted to 98% in series [2] (setting [7]) and 100% in series [2] (setting [8]). In addition, the “R. sanguineus Mortality (%) 48 h” value in series [4] is reported as 75%.
Consider `CCC/C(=N\OC(C)C)c1cc(Cl)ccc1NS(=O)(=O)C(F)(F)F` [Compound 191], for which the mortality at 1.26 µg/cm2, 1.26 µg/cm2 in series [2] (setting [7]) was found to be 52%; in series [2] (setting [8]), 100%. The “R. sanguineus Mortality (%) 48 h” value in series [4] is reported as 92%.
The matching figures for `CCC/C(=N\OC1CCCC1)c1cc(Cl)ccc1NS(=O)(=O)C(F)(F)F` [Compound 195]: 33%, 100% and 97%.
The matching figures for `CC/C(=N\OCC1CCCC1)c1cc(Cl)ccc1NS(=O)(=O)C(F)(F)F` [Compound 197]: 80%, 97% and 100%.
`CC(C)(C)/C(=N\Oc1ccc(F)cc1)c1cc(Cl)ccc1NS(=O)(=O)C(F)(F)F` [Compound 198, N-{4-chloro-2-[1-(4-fluorophenoxyimino)2,2-dimethylpropyl]phenyl}trifluoromethanesulfonamide]: the mortality at 1.26 µg/cm2, 1.26 µg/cm2 is 16% in series [2] (setting [7]) and 92% in series [2] (setting [8]). Also, the “R. sanguineus Mortality (%) 48 h” value in series [4] came out at 35%.
The matching figures for `C/C(=N\Oc1ccc(Cl)cc1)c1ccc(C(F)(F)F)cc1NS(=O)(=O)C(F)(F)F` [Compound 199, N-{2-[1-(4-chlorophenoxyimino)ethyl]-5-trifluoromethylphenyl}trifluoromethanesulfonamide]: 82%, 100% and 5%.
